Results as given in patent publication US20220000971A1, “METHODS AND COMPOUNDS FOR TARGETING SORTILIN RECEPTORS AND INHIBITING VASCULOGENIC MIMICRY” (TRANSFERT PLUS, S.E.C., priority 2018, published 2022).
Where “and” joins values, the source holds several entries; their conditions need not be identical. Equal entries are not always repeated. Entries after “also recorded” stand apart in the source; their conditions may differ. Where two headings read alike, the source gives them in different places. Where a SMILES comes first, the peptide text is derived from it. [ ]: non-standard residue; d: D form. The star is where a group is joined. X1 = CC(=O)O[C@@]12CO[C@@H]1C[C@H](O)[C@@]1(C)C(=O)[C@H](O)C3=C(C)[C@@H](OC(=O)[C@H](OC(=O)CCC(=O)*)[C@@H](NC(=O)OC(C)(C)C)c4ccccc4)C[C@@](O)([C@@H](OC(=O)c4ccccc4)[C@H]21)C3(C)C; Nle = CCCC[C@H](N)C(=O)O

Experiments:
MDA-MB-231 cells [1] = experiment: Real-time cell migration, xCELLigence (MDA-MB-231); type: cell-based
Method: (§1) In vitro vasculogenic mimicry of cancer cells was assessed using a Matrigel tube formation assay. In brief, each well of a 96-well plate was pre-coated with Matrigel. ES-2 ovarian cancer or MDA-MB-231 TNBC cell suspensions were seeded on top of Matrigel. 3D-tubular structures were analyzed and quantified using Wimasis Analysis software. Real-time cell migration was evaluated using the ×CELLigence system. Sortilin gene silencing was performed with specific siRNA. Effects of Doxorubicin-KA-peptide conjugate (DoxKA) KBA-106 represented by formula Acetyl-GVRAK(doxorubicin)AGVRN(Nle)FK(doxorubicin)SESY (Formula (XXVIII)) and Docetaxel-KA-peptide conjugate (DoceKA) represented by formula Acetyl-GVRAK(docetaxel)AGVRN(Nle)FK(docetaxel)SESY (Formula (XXIII)) targeting Sortilin on vasculogenic mimicry and cell migration were determined.
(§2) MDA-MB-231 cells were used as a TNBC cell model for in vitro and in vivo xenograft (CD1 nude mice) assays. Cell migration was assessed using the ×CELLigence real-time system, whereas MTT assay was used for cell proliferation analysis. Apoptosis biomarkers expression was assessed by immunoblotting.

MDA-MB-231 cells [2] = experiment: MTT cell proliferation assay; type: cell-based
Method: as §2

[3] = test system: ES-2 ovarian cancer cells; experiment: Real-time cell migration, xCELLigence (ES-2); type: cell-based, human
Method: as §1

[4] = test system: ES-2 ovarian cancer cells; experiment: In vitro vasculogenic mimicry, Matrigel tube formation assay (ES-2); type: cell-based, human
[5] = Blood cell / neutrophil counts after treatment; type: in vivo, nude mice
From the text: FIG. 27A illustrates the effect on lymphocytes after 3 treatments with different concentrations of Docetaxel or DoceKA. FIG. 27B illustrates the effect on platelets after 3 treatments with different concentrations of Docetaxel or DoceKA. FIG. 27C illustrates the effect on neutrophils after 3 treatments with different concentrations of Docetaxel or DoceKA. IP means intraperitoneal administration, while IV means intravenous delivery.
FIG. 28 depicts the preliminary toxicity data on DoceKA, specifically, the neutrophils count (g/L) after DoceKA treatments at different dosages of Docetaxel or DoceKA.

MDA-MB-231 cells [6] = experiment: Cell death / apoptosis (Annexin V-FITC/PI); type: cell-based
Method: MDA-MB-231 cells treated for 5 hours with control (vehicle) or with increasing concentrations of Docetaxel or DoceKA. Cells were then harvested and the rate of apoptosis was determined following staining with Annexin V-FITC and propidium iodide (PI). Cells were analyzed by flow cytometry.

MDA-MB-231 TNBC cells = experiment: In vitro vasculogenic mimicry, Matrigel tube formation assay (MDA-MB-231); type: cell-based; conditions: MDA-MB231; FIG. 43
Method: as §1

[7] = test system: IL-6, Survivin, Bcl-xL and mutant p53; experiment: Immunoblotting of pro-survival biomarkers; type: cell-based; conditions: MDA-MB-231
From the text: FIGS. 22A and 22B illustrate the molecular mechanism of cell death induction by DoceKA in MDA-MB-231 cells. FIG. 22A illustrates the immunoblotting experiment showing the expression level of IL-6, Survivin, Bcl-xi and mutated p53 in MDA-MB-231 cell after treatment with Docetaxel and DoceKA. GAPDH was used as a control. FIG. 22B data are representative of three independent experiments and the bar graphs show the densitometric quantification of IL-6, Survivin, Bcl-xL and p53 expression as compared to GAPDH. The mean value of the control group was set to be 1.0.
as §2

[8] = test system: MDA-MB-231 xenograft tumor; experiment: MDA-MB-231 xenograft tumor model; type: in vivo, CD1 nude mice; conditions: murine MDA-MB-231 xenograft
Method: as §2

[9] = DoceKA pharmacokinetics in mice (plasma, UPLC/MS); type: in vivo, CD-1 mice; conditions: for half-life: iv, 50 mg/kg
Method: FIG. 29A illustrates the plasma concentration for DoceKA and released Docetaxel (BDL) at progressive time intervals. FIG. 29B illustrates the PK in CD-1 mice. […] Plasma was collected at different time points. DoceKA and released Docetaxel were extracted with acetonitrile. DoceKA and released Docetaxel, were quantified by UPLC/MS using Paclitaxel as the internal standard: 2 μl and 10 μl of supematants were injected for DoceKA and Docetaxel directly without lyophilization.
PK data on Docetaxel were obtained from refs. 50 and 51. PK analysis for DoceKA was carried out using PK solutions software. Docetaxel PK in mice is biphasic and linear between 13-62 mg/kg. […] Both have similar half-lives. DoceKA has a lower clearance (CL) and Volume of distribution (Vd). These preliminary data need to be confirmed with more data (shorter and longer time points).

tubulin = experiment: Tubulin / microtubule polymerization; type: biochemical
Method: FIGS. 23A and 23B depict the DoceKA impact on tubulin polymerization. More particularly, FIG. 23A illustrates cells treated with vehicle (DMSO), 2 μM Docetaxel or 1 μM DoceKA for 24 hours, fixed and immunostained with anti-a-tubulin antibody and imaged using confocal microscopy. […] FIG. 23B illustrates that in a fluorescence-based polymerization assay, the effect of Docetaxel (2 μM) and DoceKA (1 μM) on polymerization of purified tubulin was examined in vitro. Paclitaxel (2 μM) and Vinblastine (2 μM) were added as controls for tubulin-polymerizing and tubulin-depolymerizing agents, respectively. Tubulin assembly into microtubules was determined by an increase in fluorescence emission (Ex. 340-360 nm±20 nm; Em. 410-460 nm±20 nm).

[10] = test system: MDA-MB-231 breast cancer cells; experiment: [3H]-Thymidine Incorporation assay; type: cell-based; conditions: Homo sapiens, GraphPad Prism
Method: FIG. 19 depicts the in vitro anticancer properties of DoceKA against MDA-MB-231 breast cancer cells as determined using the [3H]-Thymidine Incorporation assay. Incorporated [3H]-Thymidine was plotted for each drug concentration. IC50 values (nM) were calculated using the GraphPad Prism software. […] is a set of graphs depicting the cell-cycle distribution of MDA-MB231 cells determined based on cellular DNA content using flow cytometry after 24 hours of treatment with 2 μM Docetaxel or 1 μM DoceKA.

[11] = cited from earlier work
[12] = CD-1, mouse, plasma, DoceKA 50 mg/kg, intravenous, preliminary data

What does the source list for CCCC[C@H](NC(=O)[C@H](CC(N)=O)NC(=O)[C@H](CCCNC(=N)N)NC(=O)[C@@H](NC(=O)CNC(=O)[C@H](C)NC(=O)[C@H](CCCCNC(=O)CCC(=O)O[C@@H](C(=O)O[C@H]1C[C@@]2(O)[C@@H](OC(=O)c3ccccc3)[C@@H]3[C@]4(OC(C)=O)CO[C@@H]4C[C@H](O)[C@@]3(C)C(=O)[C@H](O)C(=C1C)C2(C)C)[C@@H](NC(=O)OC(C)(C)C)c1ccccc1)NC(=O)[C@H](C)NC(=O)[C@H](CCCNC(=N)N)NC(=O)[C@@H](NC(=O)CNC(C)=O)C(C)C)C(C)C)C(=O)N[C@@H](Cc1ccccc1)C(=O)N[C@@H](CCCCNC(=O)CCC(=O)O[C@@H](C(=O)O[C@H]1C[C@@]2(O)[C@@H](OC(=O)c3ccccc3)[C@@H]3[C@]4(OC(C)=O)CO[C@@H]4C[C@H](O)[C@@]3(C)C(=O)[C@H](O)C(=C1C)C2(C)C)[C@@H](NC(=O)OC(C)(C)C)c1ccccc1)C(=O)N[C@@H](CO)C(=O)N[C@@H](CCC(=O)O)C(=O)N[C@@H](CO)C(=O)N[C@@H](Cc1ccc(O)cc1)C(=O)O [DoceKA, Acetyl-GVRAK(docetaxel)AGVRN(Nle)FK(docetaxel)SESY] (Ac-GVRAK(X1)AGVRN[Nle]FK(X1)SESY-OH)?
cell migration (MDA-MB-231 cells [1]): inhibited; also recorded: potent anti-proliferative and anti-migratory activities; cell proliferation (MDA-MB-231 cells [2]): potent anti-proliferative and anti-migratory activities; cell migration [3]: inhibited; concentration at which total number of loops and total tube length are inhibited ([4]; ES-2 on Matrigel): low pM concentration; also recorded: very low pM concentration; also recorded: inhibited at low nM concentrations; vasculogenic mimicry inhibition compared to unconjugated drug ([4]; ES-2 on Matrigel, 12 hrs, equivalent concentration of free drug (Docetaxel 600 pM)): stronger inhibition of vasculogenic mimicry than unconjugated free drugs; also recorded: stronger inhibition of 3Dtubulare structures than Docetaxel alone; IC50 values for vasculogenic mimicry inhibition ([4]; Example 2, ovarian cancer and TNBC cells): low nM to pM; neutrophils count ([5]; after six injections): remained within normal limits; effect on blood cells (lymphocytes, platelets, neutrophils) ([5]; nude mice, 3 treatments): absence of effect; cell death induction compared to free Docetaxel (MDA-MB-231 cells [6]): faster and higher cell death mechanisms; vasculogenic mimicry inhibition compared to Docetaxel alone (MDA-MB-231 TNBC cells): stronger inhibition of vasculogenic mimicry; expression of pro-survival biomarkers [7]: down-regulation of IL-6, Survivin, Bcl-xL and mutant p53; tumor regression and survival compared to Docetaxel [8]: greater tumor regression capacity with a prolonged survival; half-life ([9]; CD-1, mouse, plasma, DoceKA 50 mg/kg, intravenous, preliminary data, read-out: t½ adsorption distribution): 6 to 20 min; half-life ([9]; CD-1, mouse, plasma, DoceKA 50 mg/kg, intravenous, preliminary data, read-out: t½ elimination): 90 to 150 min; AUC [9, 12]: 614 µM·h and 2.3e+06 ng·h/mL; Cmax [9, 12]: 1.6e+06 ng/mL and 437 µM; Vd [9, 12]: 0.04 L/kg; clearance [9, 12]: 0.3 mL/min/kg; plasma concentration of released Docetaxel ([9]; DoceKA 20 mg/kg intravenously, at 0.083, 0.25 and 4 hours): below the limit of quantification; AUC (tissue exposure) of DoceKA compared to Docetaxel ([9]; higher for DoceKA): about 29 fold; Cmax of DoceKA compared to Docetaxel ([9]; higher, compared to Docetaxel (20 mg/kg)): about 18 fold; microtubules polymerization (tubulin): altered microtubules polymerization

Which results are given for CC(=O)O[C@@]12CO[C@@H]1C[C@H](O)[C@@]1(C)C(=O)[C@H](O)C3=C(C)[C@@H](OC(=O)[C@H](O)[C@@H](NC(=O)OC(C)(C)C)c4ccccc4)C[C@@](O)([C@@H](OC(=O)c4ccccc4)[C@H]21)C3(C)C [Docetaxel, docetaxel]?
IC50 [10]: 0.68 nM; CL ([11]; Docetaxel 10 mg/kg, mice): 35 mL/min/kg; Vd ([11]; Docetaxel 10 mg/kg, mice): 2.2 to 5 L/kg; t½ adsorption distribution ([11]; Docetaxel 10 mg/kg, mice): 7 min; t½ elimination ([11]; Docetaxel 10 mg/kg, mice): 72 min; Reported Cmax ([11]; Docetaxel dosed at 20 mg/kg): about 20 μg/ml; Cmax ([11]; Docetaxel dosed at 20 mg/kg, read-out: Reported Cmax): ~25 µM; neutrophils count ([5]; four days after a single injection at the maximum tolerable dose): drastic reduction in neutrophils count
